From patent US6733779B2, “Method of treating benign prostatic hyperplasia and other benign prostate conditions” (priority 1999, dated 2004) come the findings set out here.

In data set [1] the test system is prostate specific antigen (PSA). In words: Blood PSA level of patients treated orally with Accutane. Format: in vivo, human.
Data set [2] deals with benign prostatic hyperplasia. The data set is described as follows: Clinical treatment of patients with benign prostatic hyperplasia / benign prostate conditions: symptoms and prostate size. Type of data set: in vivo, human.
A short description of data set [3]: Side effects observed in the treated patients (informal trials).
Description: The treatment method involves essentially two periods: an initial treatment, and a sustaining treatment. First, in the initial treatment the patients orally administrate an initial dosage about 40 mg of 13-cis-retinoic acid daily for a period from about ten days to about twenty days. Thereafter, the patients orally administrate a sustaining dosage about 40 mg of 13-cis-retinoic acid about every five to seven days in a sustaining period. Typically, the sustaining period is about one year. However, it can be extended longer if extended maintenance is needed.
In the initial treatment, 40 mg of 13-cis-retinoic acid can be administrated in a single dose, or divided doses. […] The patients can either take one 40 mg capsule, or take two 20 mg capsules daily. The same applies to the dosage in the sustaining treatment. For convenience, the patients can take one 40 mg dose every five to seven days.
The initial dosage of about 40 mg 13-cis-retinoic acid daily is determined based on average men's body weight of about 160 lbs, i.e. at about 0.25 mg/lb of body weight. For patients who weigh substantially above or less than the average body weight, the dosage described above can be adjusted accordingly. The same principle applies to the sustaining dosage.
[4] abbreviates: patients of the informal trials.

As for `CC1=C(/C=C/C(C)=C/C=C/C(C)=C\C(=O)O)C(C)(C)CCC1` [Accutane, 13-cis retinoic acid], the PSA after treatment entry was “less than one” in data set [1] (Example 1 patient, PSA 4 before, 40 mg orally for 14 days, then 40 mg every 5 days for about one year); “less than one” in data set [1] (Example 2 patient, PSA 3 before, after 6 months, 40 mg for 14 days, then 40 mg every 5 days); “less than 1” in data set [1] (Example 3 patient, chronic posttraumatic prostatitis, PSA 5 before, 40 mg daily for 14 days, then 40 mg every 5 days); “less than 1” in data set [1] (Example 4 patient, PSA 4 before, within 6 months, 40 mg per day for 14 days, then 40 mg every 5 days). Further, the symptoms entry in data set [2] (Example 1 patient, prostatic enlargement and attenuated urine stream, 40 mg for 14 days, then 40 mg every 5 days) is recorded as “improved steadily”; in data set [2] (Example 2 patient, prostatic enlargement, decreasing urine flow, urgency, nocturia), “steady improvement in symptoms”; in data set [2] (Example 3 patient, chronic prostatitis, after the initial treatment, remained so during the sustaining period), “rapidly became symptom free”; in data set [2] (Example 4 patient, enlarged prostate, urinary tenesmus), “readily improved”. Further, the “palpable size of prostate” value in data set [2] (Example 1 patient, 40 mg for 14 days, then 40 mg every 5 days) is reported as “decreased in palpable size”. Also, the prostate enlargement result in data set [2] (approximately twelve patients, by examination and the patients' own anecdotal comments) is “a reduction in prostate enlargement was confirmed”. The “worsening of condition (PSA or hyperplasia), progression to malignancy” value in data set [2] (setting [4]) was “none of the conditions of these patients worsened”. The blood chemistries result in data set [3] (Example 1 patient, on sustaining dosage of 40 mg every 5 days) is given as “remained normal”. Moreover, the adverse side effects result was “drying of lips and some musculo-skeletal soreness at sites of old injuries to the fingers and neck” in data set [3] (Example 1 patient, soreness subsided slowly after the sustaining dose was instituted); “No adverse side effects were observed” in data set [3] (Example 2 patient). Besides, the “serious adverse side effects or contra-indications” value in data set [3] (setting [4]) is given as “no serious adverse side effects or contra-indications of any kind were observed”.
